Consider 18 compounds from US20080249077A1, “17.Beta.-Fluoromethoxycarbonyl-Androst-4-En-3-One Compounds With a 17.Alpha.-Carbonate Sustituent” (priority 2005, published 2008).

This experiment addresses T1, glucocorticoid receptor (Homo sapiens, UniProt P04150).
T1 construct: A549 cells stably transfected with a reporter gene; endogenous in cells; host or cells: A549 cells
T1 sequence (P04150 1-777): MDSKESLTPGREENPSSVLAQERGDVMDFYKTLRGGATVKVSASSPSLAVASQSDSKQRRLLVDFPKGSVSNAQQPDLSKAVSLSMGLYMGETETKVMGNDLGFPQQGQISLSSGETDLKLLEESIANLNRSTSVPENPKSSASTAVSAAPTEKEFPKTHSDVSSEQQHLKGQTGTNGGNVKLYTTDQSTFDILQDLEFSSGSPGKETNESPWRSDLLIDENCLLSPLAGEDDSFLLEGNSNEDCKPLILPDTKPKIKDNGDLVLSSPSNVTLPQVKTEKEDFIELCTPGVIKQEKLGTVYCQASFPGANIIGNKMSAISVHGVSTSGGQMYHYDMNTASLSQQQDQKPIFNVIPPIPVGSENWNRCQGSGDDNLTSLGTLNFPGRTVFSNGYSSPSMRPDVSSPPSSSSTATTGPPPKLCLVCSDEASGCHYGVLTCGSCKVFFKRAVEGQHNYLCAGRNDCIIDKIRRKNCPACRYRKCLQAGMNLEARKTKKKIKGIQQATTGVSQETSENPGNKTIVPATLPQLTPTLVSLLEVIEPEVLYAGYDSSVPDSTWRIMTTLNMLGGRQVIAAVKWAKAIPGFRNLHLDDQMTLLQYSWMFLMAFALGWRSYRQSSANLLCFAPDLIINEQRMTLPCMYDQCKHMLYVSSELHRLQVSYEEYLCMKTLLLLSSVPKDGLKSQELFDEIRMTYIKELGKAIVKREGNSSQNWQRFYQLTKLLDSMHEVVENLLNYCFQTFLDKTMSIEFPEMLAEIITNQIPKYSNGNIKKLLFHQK
In words: Assay for transactivation activity of the glucocorticoid agonists (MMTV-LTR renilla luciferase reporter in A549 cells). The format is cell-based. The note with it: compound 6 hour at 37° C., read-out: maximal response relative to Dexamethasone (100%) (transactivation). As to the method: Assay for Transactivation Activity of the Glucocorticoid Agonists
The functional assay based on that described by R. J. H. Austin et al., Eur Resp J. (2002), 20, 1386-1392 measures the ability of compounds to directly transactivate gene expression. A549 cells stably transfected with a reporter gene containing the glucocorticoid responsive region of the mouse mammary tumour virus long terminal repeat (MMTV-LTR) coupled to renilla luciferase were treated with test compounds at appropriate doses for 6 hour at 37° C. The amount of luciferase activity present within the cells is then determined by measuring the light emitted following incubation with a suitable substrate. Dose response curves were constructed from which EC50 values were estimated and from which maximal responses are calculated relative to Dexamethasone (100%).
On the technique in general: In a reporter assay the amount or activity of a reporter protein is the signal.
Take `CC[C@H]1CC[C@@H](OC(=O)O[C@]2(C(=O)OCF)[C@H](C)C[C@H]3[C@@H]4C[C@H](F)C5=CC(=O)C=C[C@]5(C)[C@@]4(F)[C@@H](O)C[C@@]32C)CC1` (relative stereo) [Example 36, Fluoromethyl(6α,11β,16α,17α)-17-({[(cis-4-ethylcyclohexyl)oxy]carbonyl}oxy)-6,9-difluoro-11-hydroxy-16-methyl-3-oxoandrosta-1,4-diene-17-carboxylate]: the Emax was below 25%. `CCC(OC(=O)O[C@]1(C(=O)OCF)[C@H](C)C[C@H]2[C@@H]3C[C@H](F)C4=CC(=O)C=C[C@]4(C)[C@@]3(F)[C@@H](O)C[C@@]21C)C1CCCC1` (stereo partly drawn) [Example 20, Fluoromethyl(6α,11β,16α,17α)-17-({[(1-cyclopentylpropyl)oxy]carbonyl}oxy)-6,9-difluoro-11-hydroxy-16-methyl-3-oxoandrosta-1,4-diene-17-carboxylate]: the Emax was below 25%.

Turning to `CC1CC2C3CC(F)C4=CC(=O)C=CC4(C)C3(F)C(O)CC2(C)C1(OC(=O)OC1CC2CCC1(C)C2(C)C)C(=O)OCF` [Example 29, Fluoromethyl(6α,11β,16α,17α)-6,9-difluoro-11-hydroxy-16-methyl-3-oxo-17-[({[(1R,2R,4R)-1,7,7-trimethylbicyclo[2.2.1]hept-2-yl]oxy}carbonyl)oxy]androsta-1,4-diene-17-carboxylate], the Emax was below 25%. `CCC(CC)OC(=O)O[C@]1(C(=O)OCF)[C@H](C)C[C@H]2[C@@H]3C[C@H](F)C4=CC(=O)C=C[C@]4(C)[C@@]3(F)[C@@H](O)C[C@@]21C` [Example 4, Fluoromethyl(6α,11β,16α,17α)-17-({[(1-ethylpropyl)oxy]carbonyl}oxy)-6,9-difluoro-11-hydroxy-16-methyl-3-oxoandrosta-1,4-diene-17-carboxylate]: the Emax was below 25%.

As to `C[C@@H]1C[C@H]2[C@@H]3C[C@H](F)C4=CC(=O)C=C[C@]4(C)[C@@]3(F)[C@@H](O)C[C@]2(C)[C@@]1(OC(=O)OCC1C(C)(C)C1(C)C)C(=O)OCF` [Example 24, Fluoromethyl(6α,11β,16α,17α)-6,9-difluoro-11-hydroxy-16-methyl-3-oxo-17-[({[(2,2,3,3-tetramethylcyclopropyl)methyl]oxy}carbonyl)oxy]androsta-1,4-diene-17-carboxylate], the Emax was below 25%. For the compound `C[C@@H]1C[C@H]2[C@@H]3C[C@H](F)C4=CC(=O)C=C[C@]4(C)[C@@]3(F)[C@@H](O)C[C@]2(C)[C@@]1(OC(=O)OCC(C)(C)C)C(=O)OCF` [Example 7, Fluoromethyl(6α,11β,16α,17α)-17-({[(2,2-dimethylpropyl)oxy]carbonyl}oxy)-6,9-difluoro-11-hydroxy-16-methyl-3-oxoandrosta-1,4-diene-17-carboxylate], the Emax is below 25%.

With `CC(OC(=O)O[C@]1(C(=O)OCF)[C@H](C)C[C@H]2[C@@H]3C[C@H](F)C4=CC(=O)C=C[C@]4(C)[C@@]3(F)[C@@H](O)C[C@@]21C)C1CCCC1` (stereo partly drawn) [Example 21, Fluoromethyl(6α,11β,16α,17α)-17-({[(1-cyclopentylethyl)oxy]carbonyl}oxy)-6,9-difluoro-11-hydroxy-16-methyl-3-oxoandrosta-1,4-diene-17-carboxylate], the Emax is below 25%. Regarding `CC1CC2C3CC(F)C4=CC(=O)C=CC4(C)C3(F)C(O)CC2(C)C1(OC(=O)OC1CC2CCC1C2)C(=O)OCF` (stereo not drawn) [Example 12, Fluoromethyl(6α,11β,16α,17α)-17-({[(1RS,2RS,4SR)-bicyclo[2.2.1]hept-2-yloxy]carbonyl}oxy)-6,9-difluoro-11-hydroxy-16-methyl-3-oxoandrosta-1,4-diene-17-carboxylate], the Emax is below 25%. For the compound `CC(OC(=O)O[C@]1(C(=O)OCF)[C@H](C)C[C@H]2[C@@H]3C[C@H](F)C4=CC(=O)C=C[C@]4(C)[C@@]3(F)[C@@H](O)C[C@@]21C)C(C)(C)C` (stereo partly drawn) [Example 23, Fluoromethyl(6α,11β,16α,17α)-6,9-difluoro-11-hydroxy-16-methyl-3-oxo-17-({[(1,2,2-trimethylpropyl)oxy]carbonyl}oxy)androsta-14-diene-17-carboxylate], the Emax is below 25%.

`C[C@@H]1C[C@H]2[C@@H]3C[C@H](F)C4=CC(=O)C=C[C@]4(C)[C@@]3(F)[C@@H](O)C[C@]2(C)[C@@]1(OC(=O)OC1CCCC1)C(=O)OCF` [Example 31, Fluoromethyl(6α,11β,16α,17α)-17-{[(cyclopentyloxy)carbonyl]oxy}-6,9-difluoro-11-hydroxy-16-methyl-3-oxoandrosta-1,4-diene-17-carboxylate]: the Emax is below 25%. With `C[C@@H]1C[C@H]2[C@@H]3C[C@H](F)C4=CC(=O)C=C[C@]4(C)[C@@]3(F)[C@@H](O)C[C@]2(C)[C@@]1(OC(=O)O[C@@H]1C[C@@H]2CC[C@@]1(C)C2(C)C)C(=O)OCF` [Example 27, Fluoromethyl(6α,11β,16α,17α)-6,9-difluoro-11-hydroxy-16-methyl-3-oxo-17-[({[(1S,2R,4S)-1.7.7-trimethylbicyclo[2.2.1]hept-2-yl]oxy}carbonyl)oxy]androsta-1,4-diene-17-carboxylate] the figure was below 25%.

As to `COC1CCCCC1OC(=O)OC1(C(=O)OCF)C(C)CC2C3CC(F)C4=CC(=O)C=CC4(C)C3(F)C(O)CC21C` (stereo not drawn) [Example 18, Fluoromethyl(6α,11β,16α,17α)-6,9-difluoro-11-hydroxy-16-methyl-17-[({[(1RS,2RS)-2-(methyloxy)cyclohexyl]oxy}carbonyl)oxy]-3-oxoandrosta-1,4-diene-17-carboxylate], the Emax was below 25%. Turning to `C[C@@H]1C[C@H]2[C@@H]3C[C@H](F)C4=CC(=O)C=C[C@]4(C)[C@@]3(F)[C@@H](O)C[C@]2(C)[C@@]1(OC(=O)O[C@H]1C(C)(C)[C@H]2CC[C@]1(C)C2)C(=O)OCF` [Example 33, Fluoromethyl(6α,11β,16α,17α)-6,9-difluoro-11-hydroxy-16-methyl-3-oxo-17-[({[(1R,2R,4S)-1,3,3-trimethylbicyclo[2.2.1]hept-2-yl]oxy}carbonyl)oxy]androsta-1,4-diene-17-carboxylate], the Emax was below 25%. As to `CC(C)C1CCC(OC(=O)O[C@]2(C(=O)OCF)[C@H](C)C[C@H]3[C@@H]4C[C@H](F)C5=CC(=O)C=C[C@]5(C)[C@@]4(F)[C@@H](O)C[C@@]32C)CC1` (stereo partly drawn) [Example 11, Fluoromethyl(6α,11β,16α,17α)-6,9-difluoro-11-hydroxy-16-methyl-17-[({[4-(1-methylethyl)cyclohexyl]oxy}carbonyl)oxy]-3-oxoandrosta-1,4-diene-17-carboxylate], the Emax was below 25%.

As to `CCCC(CCC)OC(=O)O[C@]1(C(=O)OCF)[C@H](C)C[C@H]2[C@@H]3C[C@H](F)C4=CC(=O)C=C[C@]4(C)[C@@]3(F)[C@@H](O)C[C@@]21C` [Example 22, Fluoromethyl(6α,11β,16α,17α)-6,9-difluoro-11-hydroxy-16-methyl-3-oxo-17-({[(1-propylbutyl)oxy]carbonyl}oxy)androsta-1,4-diene-17-carboxylate], the Emax is below 25%.

With `CCCC(OC(=O)O[C@]1(C(=O)OCF)[C@H](C)C[C@H]2[C@@H]3C[C@H](F)C4=CC(=O)C=C[C@]4(C)[C@@]3(F)[C@@H](O)C[C@@]21C)C(C)C` (stereo partly drawn) [Example 25, Fluoromethyl(6α,11β,16α,17α)-6,9-difluoro-11-hydroxy-16-methyl-17-[({[1-(1-methylethyl)butyl]oxy}carbonyl)oxy]-3-oxoandrosta-1,4-diene-17-carboxylate], the Emax was below 25%.

With `C[C@@H]1C[C@H](C)C[C@H](OC(=O)O[C@]2(C(=O)OCF)[C@H](C)C[C@H]3[C@@H]4C[C@H](F)C5=CC(=O)C=C[C@]5(C)[C@@]4(F)[C@@H](O)C[C@@]32C)C1` [Example 17, Fluoromethyl(6α,11β,16α,17α)-17-[({[(1S,3R,5S)-3,5-dimethylcyclohexyl]oxy}carbonyl)oxy]-6,9-difluoro-11-hydroxy-16-methyl-3-oxoandrosta-1,4-diene-17-carboxylate], the Emax was below 25%. As to `C[C@@H]1C[C@H]2[C@@H]3C[C@H](F)C4=CC(=O)C=C[C@]4(C)[C@@]3(F)[C@@H](O)C[C@]2(C)[C@@]1(OC(=O)OC1C(C)(C)C1(C)C)C(=O)OCF` [Example 26, Fluoromethyl(6α,11β,16α,17α)-6,9-difluoro-11-hydroxy-16-methyl-3-oxo-17-({[(2,2,3,3-tetramethylcyclopropyl)oxy]carbonyl}oxy)androsta-1,4-diene-17-carboxylate], the Emax was below 25%.
